From patent US11382918B2, “Methods for treating Huntington's Disease” (PTC Therapeutics, Inc., priority 2017, dated 2022) come the findings set out here.

Where a name gives a salt, the structure may show the parent alone.

In the assay the test system is Endogenous Huntingtin Protein (HTT). In words: Endogenous Huntingtin Protein Assay (ELISA-based MSD electrochemiluminescence). Type of assay: cell-based. Conditions: Table 1. An outline of the steps:
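HTT protein in lysates was measured by electrochemiluminescence on the MSD platform. Rabbit monoclonal 5656S followed by SULFO-TAG anti-rabbit antibody served for detection after overnight 4 °C capture with MAB2166 or the polyglutamine-directed MW1 antibody.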
On the technique in general: In an ELISA, binding on a coated surface is turned into a signal by an enzyme label.
For `CN1CCC(c2ccc3nc(-c4ccc(N(C)C)nc4)cc(=O)n3c2)CC1` [compound 841, 2-[6-(dimethylamino)pyridin-3-yl]-7-(1-methylpiperidin-4-yl)-4H-pyrido[1,2-a]pyrimidin-4-one], the IC50 – broadly, the concentration that inhibits the measured activity by half – lay within 3000 to 33000 nM.

The compound `CCN1CC=C(c2cn3c(=O)cc(-c4ccc5nc(C)cn5n4)nc3cn2)CC1` [compound 842, 7-(1-ethyl-1,2,3,6-tetrahydropyridin-4-yl)-2-(2-methylimidazo[1,2-b]pyridazin-6-yl)-4H-pyrazino[1,2-a]pyrimidin-4-one] showed an IC50 of 3000 to 33000 nM. The compound `Cc1cn2nc(-c3cc(=O)n4cc(N5CCN(C)CC5)ccc4n3)cc2c(N(C)C)n1` [compound 843, 2-[4-(dimethylamino)-6-methylpyrazolo[1,5-a]pyrazin-2-yl]-7-(4-methylpiperazin-1-yl)-4H-pyrido[1,2-a]pyrimidin-4-one] yielded an IC50 of 3000 to 33000 nM.

`Cc1cn2nc(-c3cc(=O)n4cc(N5CCNC(C(F)(F)F)C5)ccc4n3)cc2c(C)n1` (stereo not shown) [compound 844, 2-(4,6-dimethylpyrazolo[1,5-a]pyrazin-2-yl)-7-[3-(trifluoromethyl)piperazin-1-yl]-4H-pyrido[1,2-a]pyrimidin-4-one]: the half-maximal inhibitory concentration (IC50) is 3000 to 33000 nM.

As for `CCN1CCN(c2ccc3nc(-c4cc(C)c5c(cnn5C)c4)cc(=O)n3c2)CC1` [compound 845, 2-(1,7-dimethyl-1H-indazol-5-yl)-7-(4-ethylpiperazin-1-yl)-4H-pyrido[1,2-a]pyrimidin-4-one], the IC50 lay in the range of 3000 to 33000 nM. Compound `Cc1cc(-c2cc(=O)n3cc(N4CCN(C)CC4)ccc3n2)cc2cnn(C)c12` [compound 846, 2-(1,7-dimethyl-1H-indazol-5-yl)-7-(4-methylpiperazin-1-yl)-4H-pyrido[1,2-a]pyrimidin-4-one] came in with an IC50 of 3000 to 33000 nM. Consider `COc1cc(O)ccc1-c1cc(=O)n2cc(C3=CCN(C(=O)OC(C)(C)C)CC3)ccc2n1` [compound 847, tert-butyl 4-[2-(4-hydroxy-2-methoxyphenyl)-4-oxo-4H-pyrido[1,2-a]pyrimidin-7-yl]-3,6-dihydropyridine-1(2H)-carboxylate], for which the IC50 was in the range of 3000 to 33000 nM.

Turning to `COc1cc(OS(=O)(=O)C(F)(F)F)ccc1-c1cc(=O)n2cc(C3=CCN(C(=O)OC(C)(C)C)CC3)ccc2n1` [compound 848, tert-butyl 4-[2-(2-methoxy-4-{[(trifluoromethyl)sulfonyl]oxy}phenyl)-4-oxo-4H-pyrido[1,2-a]pyrimidin-7-yl]-3,6-dihydropyridine-1(2H)-carboxylate], the IC50 was in the range of 3000 to 33000 nM. In the case of `COc1cc(-c2ccnc(O)c2)ccc1-c1cc(=O)n2cc(C3=CCNCC3)ccc2n1` [compound 849, 2-[4-(2-hydroxypyridin-4-yl)-2-methoxyphenyl]-7-(1,2,3,6-tetrahydropyridin-4-yl)-4H-pyrido[1,2-a]pyrimidin-4-one hydrochloride (1:1)], the IC50 lay in the range of 3000 to 33000 nM. Compound `O=c1cc(-c2ccc(-c3ccnc(O)c3)cc2O)nc2ccc(C3=CCNCC3)cn12` [compound 850, 2-[2-hydroxy-4-(2-hydroxypyridin-4-yl)phenyl]-7-(1,2,3,6-tetrahydropyridin-4-yl)-4H-pyrido[1,2-a]pyrimidin-4-one trifluoroacetate (1:1)] came in with an IC50 of 3000 to 33000 nM. For the compound `CCc1nc(C)cn2nc(-c3cc(=O)n4cc(N(C)C5CC(C)(C)NC(C)(C)C5)cc(C)c4n3)cc12` [compound 851, 2-(4-ethyl-6-methylpyrazolo[1,5-a]pyrazin-2-yl)-9-methyl-7-[methyl(2,2,6,6-tetramethylpiperidin-4-yl)amino]-4H-pyrido[1,2-a]pyrimidin-4-one], the IC50 lay within 3000 to 33000 nM.

For `Cc1cn2nc(-c3cc(=O)n4cc(N(C)C5CC(C)(C)NC(C)(C)C5)cc(C)c4n3)cc2c(C)n1` [compound 852, 2-(4,6-dimethylpyrazolo[1,5-a]pyrazin-2-yl)-9-methyl-7-[methyl(2,2,6,6-tetramethylpiperidin-4-yl)amino]-4H-pyrido[1,2-a]pyrimidin-4-one], the IC50 was 3000 to 33000 nM. In turn, `Cc1cc(N(C)C2CC(C)(C)NC(C)(C)C2)cn2c(=O)cc(-c3ccc4nn(C)cc4c3)nc12` [compound 853, 9-methyl-2-(2-methyl-2H-indazol-5-yl)-7-[methyl(2,2,6,6-tetramethylpiperidin-4-yl)amino]-4H-pyrido[1,2-a]pyrimidin-4-one] returned a half-inhibitory concentration (IC50) of 3000 to 33000 nM. With `O=c1cc(-c2cnn(C3CCCCO3)c2)nc2ccc(N3CCNCC3)cn12` (stereo not shown) [compound 854, 7-(piperazin-1-yl)-2-[1-(tetrahydro-2H-pyran-2-yl)-1H-pyrazol-4-yl]-4H-pyrido[1,2-a]pyrimidin-4-one], the IC50 fell in the range of 3000 to 33000 nM. To `O=c1cc(-c2cn[nH]c2)nc2ccc(N3CCNCC3)cn12` [compound 855, 7-(piperazin-1-yl)-2-(1H-pyrazol-4-yl)-4H-pyrido[1,2-a]pyrimidin-4-one hydrochloride (1:1)] belongs 3000 to 33000 nM. Regarding `Cc1cc2cc(-c3cc(=O)n4cc(N5CCN[C@@H](C)C5)ccc4n3)ccn2n1` [compound 856, 7-[(3S)-3-methylpiperazin-1-yl]-2-(2-methylpyrazolo[1,5-a]pyridin-5-yl)-4H-pyrido[1,2-a]pyrimidin-4-one hydrochloride (1:2)], the IC50 fell in the range of 1000 to 3000 nM. To `Cc1cc2cc(-c3cc(=O)n4cc(C5=CCNCC5)ccc4n3)ccn2n1` [compound 857, 2-(2-methylpyrazolo[1,5-a]pyridin-5-yl)-7-(1,2,3,6-tetrahydropyridin-4-yl)-4H-pyrido[1,2-a]pyrimidin-4-one] belongs 500 to 1000 nM. Turning to `CCN1CC=C(c2ccc3nc(-c4ccn5nc(C)cc5c4)cc(=O)n3c2)CC1` [compound 858, 7-(1-ethyl-1,2,3,6-tetrahydropyridin-4-yl)-2-(2-methylpyrazolo[1,5-a]pyridin-5-yl)-4H-pyrido[1,2-a]pyrimidin-4-one], the IC50 was 1000 to 3000 nM. `Cc1cc2cc(-c3cc(=O)n4cc(N5CCNCC5)ccc4n3)ccn2n1` [compound 859, 2-(2-methylpyrazolo[1,5-a]pyridin-5-yl)-7-(piperazin-1-yl)-4H-pyrido[1,2-a]pyrimidin-4-one hydrochloride (1:2)] returned an IC50 of 1000 to 3000 nM. With `Cc1cc(-c2cc(=O)n3cc(C4=CCNCC4)ccc3n2)nc2cnn(C)c12` [compound 860, 2-(1,7-dimethyl-1H-pyrazolo[4,3-b]pyridin-5-yl)-7-(1,2,3,6-tetrahydropyridin-4-yl)-4H-pyrido[1,2-a]pyrimidin-4-one hydrochloride (1:2)], the IC50 fell in the range of 3000 to 33000 nM. To `Cc1nc(-c2cc(=O)n3cc(C4=CCNCC4)ccc3n2)cc2cnn(C)c12` [compound 861, 2-(1,7-dimethyl-1H-pyrazolo[3,4-c]pyridin-5-yl)-7-(1,2,3,6-tetrahydropyridin-4-yl)-4H-pyrido[1,2-a]pyrimidin-4-one hydrochloride (1:2)] belongs 3000 to 33000 nM. With `Cc1nc(-c2cc(=O)n3cc(C4=CCNCC4)ccc3n2)cc2cn(C)nc12` [compound 862, 2-(2,7-dimethyl-2H-pyrazolo[3,4-c]pyridin-5-yl)-7-(1,2,3,6-tetrahydropyridin-4-yl)-4H-pyrido[1,2-a]pyrimidin-4-one hydrochloride (1:2)], the IC50 lay within 1000 to 3000 nM. Take `Cc1cc(-c2cc(=O)n3cc(C4=CCNCC4)ccc3n2)nc2cn(C)nc12` [compound 863, 2-(2,7-dimethyl-2H-pyrazolo[4,3-b]pyridin-5-yl)-7-(1,2,3,6-tetrahydropyridin-4-yl)-4H-pyrido[1,2-a]pyrimidin-4-one hydrochloride (1:2)]: the IC50 lay within 1000 to 3000 nM. `CCN1CCC(c2cn3c(=O)cc(-c4ccc5nn(C)cc5c4)nc3c(C)n2)CC1` [compound 864, 7-(1-ethylpiperidin-4-yl)-9-methyl-2-(2-methyl-2H-indazol-5-yl)-4H-pyrazino[1,2-a]pyrimidin-4-one] showed an IC50 below 100 nM. The compound `Cc1cc(C2=CC(C)(C)NC(C)(C)C2)cn2c(=O)cc(-c3ccc4nn(C)cc4c3)nc12` [compound 865, 9-methyl-2-(2-methyl-2H-indazol-5-yl)-7-(2,2,6,6-tetramethyl-1,2,3,6-tetrahydropyridin-4-yl)-4H-pyrido[1,2-a]pyrimidin-4-one] displayed an IC50 of 3000 to 33000 nM. `Cc1cc(-c2cc(=O)n3cc(C4CC(C)(C)NC(C)(C)C4)cc(C)c3n2)cc2cn(C)nc12` [compound 866, 2-(2,7-dimethyl-2H-indazol-5-yl)-9-methyl-7-(2,2,6,6-tetramethylpiperidin-4-yl)-4H-pyrido[1,2-a]pyrimidin-4-one] had an IC50 of 3000 to 33000 nM. Compound `Cc1cc(C2CC(C)(C)NC(C)(C)C2)cn2c(=O)cc(-c3ccc4nn(C)cc4c3)nc12` [compound 867, 9-methyl-2-(2-methyl-2H-indazol-5-yl)-7-(2,2,6,6-tetramethylpiperidin-4-yl)-4H-pyrido[1,2-a]pyrimidin-4-one] registered an IC50 of 3000 to 33000 nM. For `Cc1cn2cc(-c3cc(=O)n4cc(N5CCN(C)CC5)ccc4n3)cc(C)c2n1` [compound 868, 2-(2,8-dimethylimidazo[1,2-a]pyridin-6-yl)-7-(4-methylpiperazin-1-yl)-4H-pyrido[1,2-a]pyrimidin-4-one], the IC50 lay within 1000 to 3000 nM. `Cc1nc(C2CCNCC2)cn2c(=O)cc(-c3cc(F)c4nn(C)cc4c3)nc12` [compound 869, 2-(7-fluoro-2-methyl-2H-indazol-5-yl)-9-methyl-7-(piperidin-4-yl)-4H-pyrazino[1,2-a]pyrimidin-4-one]: the IC50 is below 100 nM. Take `Cc1cn2nc(-c3cc(=O)n4cc(C5CCNCC5)nc(C)c4n3)ccc2n1` [compound 870, 9-methyl-2-(2-methylimidazo[1,2-b]pyridazin-6-yl)-7-(piperidin-4-yl)-4H-pyrazino[1,2-a]pyrimidin-4-one hydrochloride (1:2)]: the IC50 was below 100 nM. Turning to `Cc1cc(-c2cc(=O)n3cc(C4CCNCC4)nc(C)c3n2)cc2cn(C)nc12` [compound 871, 2-(2,7-dimethyl-2H-indazol-5-yl)-9-methyl-7-(piperidin-4-yl)-4H-pyrazino[1,2-a]pyrimidin-4-one hydrochloride (1:1)], the IC50 is below 100 nM.
